Patent publication US8927717B1, “Thiochromeno[2,3-c]quinolin-12-one derivatives, preparation method and application thereof” (National Defense Medical Center, priority 2014, dated 2015)

Legend:
SF-539 = assay type: cell-based; settings: CNS cancer; 10^−5 molar; 48 hours; SRB
M14 = assay type: cell-based; settings: Melanoma; 10^−5 molar; 48 hours; SRB
BT-549 = assay type: cell-based; settings: Breast cancer; 10^−5 molar; 48 hours; SRB
A498 = assay type: cell-based; settings: Renal cancer; 10^−5 molar; 48 hours; SRB
K-562 = assay type: cell-based; settings: Leukemia; 10^−5 molar; 48 hours; SRB
SK-OV-3 = assay type: cell-based; settings: Ovarian cancer; 10^−5 molar; 48 hours; SRB
MDA-MB-231/ATCC = assay type: cell-based; settings: Breast cancer; 10^−5 molar; 48 hours; SRB
ACHN = assay type: cell-based; settings: Renal cancer; 10^−5 molar; 48 hours; SRB
CAKI-1 = assay type: cell-based; settings: Renal cancer; 10^−5 molar; 48 hours; SRB
786-0 = assay type: cell-based; settings: Renal cancer; 10^−5 molar; 48 hours; SRB
MDA-MB-486 = assay type: cell-based; settings: Breast cancer; 10^−5 molar; 48 hours; SRB
HCC-2998 = assay type: cell-based; settings: Colon cancer; 10^−5 molar; 48 hours; SRB
SN12C = assay type: cell-based; settings: Renal cancer; 10^−5 molar; 48 hours; SRB
MCF7 = assay type: cell-based; settings: Breast cancer; 10^−5 molar; 48 hours; SRB
SK-MEL-2 = assay type: cell-based; settings: Melanoma; 10^−5 molar; 48 hours; SRB
HS 578T = assay type: cell-based; settings: Breast cancer; 10^−5 molar; 48 hours; SRB
KM12 = experiment: cells; assay type: cell-based; settings: Colon cancer; 10^−5 molar; 48 hours; SRB
RXF 393 = assay type: cell-based; settings: Renal cancer; 10^−5 molar; 48 hours; SRB
PC-3 = assay type: cell-based; settings: Prostate cancer; 10^−5 molar; 48 hours; SRB
HOP-62 = assay type: cell-based; settings: Non-small cell lung cancer; 10^−5 molar; 48 hours; SRB
HCT-15 = assay type: cell-based; settings: Colon cancer; 10^−5 molar; 48 hours; SRB
T-47D = assay type: cell-based; settings: Breast cancer; 10^−5 molar; 48 hours; SRB
UACC-62 = assay type: cell-based; settings: Melanoma; 10^−5 molar; 48 hours; SRB
OVCAR-3 = assay type: cell-based; settings: Ovarian cancer; 10^−5 molar; 48 hours; SRB
SNB-19 = assay type: cell-based; settings: CNS cancer; 10^−5 molar; 48 hours; SRB
A549/ATCC = assay type: cell-based; settings: Non-small cell lung cancer; 10^−5 molar; 48 hours; SRB
OVCAR-8 = assay type: cell-based; settings: Ovarian cancer; 10^−5 molar; 48 hours; SRB
CCRF-CEM = assay type: cell-based; settings: Leukemia; 10^−5 molar; 48 hours; SRB
OVCAR-4 = assay type: cell-based; settings: Ovarian cancer; 10^−5 molar; 48 hours; SRB
HL-60(TB) = assay type: cell-based; settings: Leukemia; 10^−5 molar; 48 hours; SRB
MDA-MB-435 = assay type: cell-based; settings: Melanoma; 10^−5 molar; 48 hours; SRB
COLO 205 = assay type: cell-based; settings: Colon cancer; 10^−5 molar; 48 hours; SRB
SK-MEL-28 = assay type: cell-based; settings: Melanoma; 10^−5 molar; 48 hours; SRB
UACC-257 = assay type: cell-based; settings: Melanoma; 10^−5 molar; 48 hours; SRB
TK-10 = assay type: cell-based; settings: Renal cancer; 10^−5 molar; 48 hours; SRB
SW-620 = assay type: cell-based; settings: Colon cancer; 10^−5 molar; 48 hours; SRB
HCT-116 = assay type: cell-based; settings: Colon cancer; 10^−5 molar; 48 hours; SRB
UO-31 = assay type: cell-based; settings: Renal cancer; 10^−5 molar; 48 hours; SRB
NCI/ADR-RES = assay type: cell-based; settings: Ovarian cancer; 10^−5 molar; 48 hours; SRB
LOX IMVI = assay type: cell-based; settings: Melanoma; 10^−5 molar; 48 hours; SRB
SK-MEL-5 = assay type: cell-based; settings: Melanoma; 10^−5 molar; 48 hours; SRB
SNB-75 = assay type: cell-based; settings: CNS cancer; 10^−5 molar; 48 hours; SRB
HOP-92 = assay type: cell-based; settings: Non-small cell lung cancer; 10^−5 molar; 48 hours; SRB
60 cancer cell lines = experiment: NCI 60-cell screen, SRB, whole panel (mean, delta, range); assay type: cell-based; settings: 10^−5 molar, 48 hours, SRB
SF-268 = assay type: cell-based; settings: CNS cancer; 10^−5 molar; 48 hours; SRB
NCI-H226 = assay type: cell-based; settings: Non-small cell lung cancer; 10^−5 molar; 48 hours; SRB
NCI-H522 = assay type: cell-based; settings: Non-small cell lung cancer; 10^−5 molar; 48 hours; SRB
SR = assay type: cell-based; settings: Leukemia; 10^−5 molar; 48 hours; SRB
RPMI-8226 = assay type: cell-based; settings: Leukemia; 10^−5 molar; 48 hours; SRB
NCI-H460 = assay type: cell-based; settings: Non-small cell lung cancer; 10^−5 molar; 48 hours; SRB
DU-145 = assay type: cell-based; settings: Prostate cancer; 10^−5 molar; 48 hours; SRB
HT29 = assay type: cell-based; settings: Colon cancer; 10^−5 molar; 48 hours; SRB
NCI-H23 = assay type: cell-based; settings: Non-small cell lung cancer; 10^−5 molar; 48 hours; SRB
SF-295 = assay type: cell-based; settings: CNS cancer; 10^−5 molar; 48 hours; SRB
MOLT-4 = assay type: cell-based; settings: Leukemia; 10^−5 molar; 48 hours; SRB
U251 = assay type: cell-based; settings: CNS cancer; 10^−5 molar; 48 hours; SRB
IGROV1 = assay type: cell-based; settings: Ovarian cancer; 10^−5 molar; 48 hours; SRB
MALME-3M = assay type: cell-based; settings: Melanoma; 10^−5 molar; 48 hours; SRB
OVCAR-5 = assay type: cell-based; settings: Ovarian cancer; 10^−5 molar; 48 hours; SRB

O=c1c2ccc(Cl)cc2sc2c(Cl)nc3ccccc3c12 [Compound 3, 6,9-Dichloro-12H-thiochromeno[2,3-c]quinolin-12-one]
Growth percent SF-539 (SF-539): 89.02%
Growth percent M14 (M14): 106.18%
Growth percent BT-549 (BT-549): 110.01%
Growth percent A498 (A498): 106.06%
Growth percent K-562 (K-562): 101.04%
Growth percent SK-OV-3 (SK-OV-3): 101.32%
melting point: 259 to 261 °C
Growth percent MDA-MB-231/ATCC (MDA-MB-231/ATCC): 84.28%
Growth percent ACHN (ACHN): 86.84%
Growth percent CAKI-1 (CAKI-1): 94.31%
Growth percent 786-0 (786-0): 105.25%
Growth percent MDA-MB-486 (MDA-MB-486): 98.57%
Growth percent HCC-2998 (HCC-2998): 123.28%
Growth percent SN12C (SN12C): 95.92%
Growth percent MCF7 (Table 2: MCF) (MCF7): 82.58%
Growth percent SK-MEL-2 (SK-MEL-2): 95.54%
Growth percent HS 578T (HS 578T): 95.14%
Growth percent KM12 (KM12): 111.27%
Growth percent RXF 393 (RXF 393): 102.55%
Growth percent PC-3 (PC-3): 91.59%
Growth percent HOP-62 (HOP-62): 82.02%
Growth percent HCT-15 (HCT-15): 102.28%
Growth percent T-47D (T-47D): 110.10%
Growth percent UACC-62 (UACC-62): 89.69%
Growth percent OVCAR-3 (OVCAR-3): 111.27%
Growth percent SNB-19 (SNB-19): 107.89%
Growth percent A549/ATCC (A549/ATCC): 104.74%
Growth percent OVCAR-8 (OVCAR-8): 101.62%
Growth percent CCRF-CEM (CCRF-CEM): 93.12%
Growth percent OVCAR-4 (OVCAR-4): 87.91%
Growth percent HL-60(TB) (HL-60(TB)): 99.34%
Growth percent MDA-MB-435 (MDA-MB-435): 100.64%
Growth percent COLO 205 (COLO 205): 112.15%
Growth percent SK-MEL-28 (SK-MEL-28): 101.80%
Growth percent UACC-257 (UACC-257): 104.47%
Growth percent TK-10 (TK-10): 108.56%
Growth percent SW-620 (SW-620): 99.06%
Growth percent HCT-116 (HCT-116): 102.27%
Growth percent UO-31 (UO-31): 66.06%
Growth percent NCI/ADR-RES (NCI/ADR-RES): 102.80%
Growth percent LOX IMVI (LOX IMVI): 90.53%
Growth percent SK-MEL-5 (SK-MEL-5): 97.42%
Growth percent SNB-75 (SNB-75): 77.88%
Growth percent HOP-92 (HOP-92): 90.83%
Growth percent, Delta (60 cancer cell lines; delta over the cell panel): 32.05%
Growth percent, Mean (60 cancer cell lines; mean over the cell panel): 98.11%
Growth percent, Range (60 cancer cell lines; range over the cell panel): 57.22%
Growth percent SF-268 (SF-268): 109.60%
Growth percent NCI-H226 (NCI-H226): 83.41%
Growth percent NCI-H522 (NCI-H522): 96.81%
Growth percent SR (SR): 89.02%
Growth percent RPMI-8226 (RPMI-8226): 100.19%
Growth percent NCI-H460 (NCI-H460): 103.14%
Growth percent DU-145 (DU-145): 114.27%
Growth percent HT29 (HT29): 99.73%
Growth percent NCI-H23 (NCI-H23): 85.12%
Growth percent SF-295 (SF-295): 90.26%
Growth percent MOLT-4 (MOLT-4): 98.04%
Growth percent U251 (U251): 101.71%
Growth percent IGROV1 (IGROV1): 96.06%
Growth percent MALME-3M (MALME-3M): 95.87%
Growth percent OVCAR-5 (OVCAR-5): 100.07%
